Reference: publication PMC9680624 (RSC Advances, 2022)
≈ marks a conversion by molar mass, not a printed value.

How the values were obtained:
PC3 = experiment: In vitro anti-proliferative activity, MTT assay; type: cell-based; conditions: Homo sapiens, PC-3, 24 h, read-out: In vitro cytotoxicity IC50 PC3
MCF-7 = experiment: In vitro anti-proliferative activity, MTT assay; type: cell-based; conditions: Homo sapiens, MCF7, 24 h, read-out: In vitro cytotoxicity IC50 MCF-7
HepG-2 = experiment: In vitro anti-proliferative activity, MTT assay; type: cell-based; conditions: Homo sapiens, HepG2, 24 h, read-out: In vitro cytotoxicity IC50 HepG-2
NF-κB P65 = NF-κB P65 level in HepG-2 cell lysate, ELISA; type: cell-based, human; conditions: 72 h, control 278.1
TNF-α = TNF-α level in HepG-2 cell supernatant, ELISA; type: cell-based, human; conditions: HepG-2 supernatant, 10 μM, 72 h, control 162.5
VEGF = VEGF level in HepG-2 cell supernatant, ELISA; type: cell-based, human; conditions: HepG-2 supernatant, 10 μM, 72 h, control 432.5
[1] = Cytotoxicity against Vero cells, MTT assay; type: cell-based; conditions: African green monkey, Vero cells (normal, non-cancerous cell line)
Vero cells = experiment: Cytotoxicity against Vero cells, MTT assay; type: cell-based; conditions: for Selectivity index (SI) HepG-2: SI = cytotoxicity against Vero cells/cytotoxicity against HepG-2 cell line; for Selectivity index (SI) PC3: SI = cytotoxicity against Vero cells/cytotoxicity against PC3 cell line
caspase-8 = experiment: Caspase-8 level in HepG-2 cell supernatant, ELISA; type: cell-based, human; conditions: for increase of caspase-8 level: HepG-2 cells, versus control cells; for CASPASE-8 level: HepG-2 supernatant, ELISA, 10 μM, 72 h, control 1.08

SMILES | IC50 (PC3) [µg/mL] | IC50 (MCF-7) [µg/mL] | IC50 (HepG-2) [µg/mL] | NFκB P65 level (NF-κB P65) [pg/mL] | TNF-α level (TNF-α) [pg/mL] | VEGF level (VEGF) [pg/mL] | IC50 [1] [µg/mL] | Selectivity index (SI) HepG-2 (Vero cells) | Selectivity index (SI) PC3 (Vero cells) | increase of caspase-8 level (caspase-8) | CASPASE-8 level (caspase-8) [ng mL^−1] | Selectivity index (SI) MCF-7 (Vero cells; SI = cytotoxicity against Vero cells/cytotoxicity against MCF-7 cell line)
NC(=O)NNc1nc(Cl)nc2cccc(Cl)c12 [Compound 15a, 2-(2,5-Dichloroquinazolin-4-yl)hydrazine-1-carboxamide] | 26.1 ± 2 (≈ 95.8 µM) | 17.3 ± 1.3 (≈ 63.7 µM) | 24.5 ± 2 (≈ 90.1 µM) | – | – | – | – | – | – | – | – | –
O=C1CCC(Nc2nc(Cl)nc3cccc(Cl)c23)C(=O)N1 (stereo not shown) [Compound 13a, 3-((2,5-Dichloroquinazolin-4-yl)amino)piperidine-2,6-dione] | 54.3 ± 3 (≈ 167 µM) | 35.3 ± 2.4 (≈ 109 µM) | 46.3 ± 3.1 (≈ 142 µM) | – | – | – | – | – | – | – | – | –
Cc1ccc(S(=O)(=O)NNc2nc(Cl)nc3cccc(Cl)c23)cc1 [Compound 19a, N′-(2,5-Dichloroquinazolin-4-yl)-4-methylbenzenesulfonohydrazide] | 21.5 ± 1.6 (≈ 56 µM) | 12.8 ± 1 (≈ 33.3 µM) | 19.1 ± 1.5 (≈ 49.8 µM) | – | – | – | – | – | – | – | – | –
O=S(=O)(NNc1nnc(Cl)c2ccccc12)c1ccccc1 [Compound 24c, N′-(4-Chlorophthalazin-1-yl)benzenesulfonohydrazide] | 14.9 ± 1.1 (≈ 44.6 µM) | 8.12 ± 0.7 (≈ 24.3 µM) | 7.96 ± 0.5 (≈ 23.8 µM) | – | – | – | – | – | – | – | – | –
O=C1CCC(Nc2nc(Cl)nc3ccc(Cl)cc23)C(=O)N1 (stereo not shown) [Compound 13b, 3-((2,6-Dichloroquinazolin-4-yl)amino)piperidine-2,6-dione] | 38.4 ± 3.1 (≈ 118 µM) | 29.3 ± 2.3 (≈ 90.2 µM) | 59 ± 3.3 (≈ 181 µM) | – | – | – | – | – | – | – | – | –
O=S(=O)(NNc1nnc(Cl)c2ccccc12)c1ccc(F)cc1 [Compound 24b, N′-(4-Chlorophthalazin-1-yl)-4-fluorobenzenesulfonohydrazide] | 4.11 ± 0.3 (≈ 11.7 µM) | 5.8 ± 0.4 (≈ 16.4 µM) | 2.51 ± 0.1 (≈ 7.11 µM) | 76.5 | 82.5 | 185.3 | 161.1 ± 1.42 (≈ 457 µM) | 65.18 | 39.80 | about 7 folds | 6.9 | –
O=S(=O)(NNc1nc(Cl)nc2cccc(Cl)c12)c1ccc(F)cc1 [Compound 19b, N′-(2,5-Dichloroquinazolin-4-yl)-4-fluorobenzenesulfonohydrazide] | 32.7 ± 2.3 (≈ 84.5 µM) | 20.5 ± 1.5 (≈ 52.9 µM) | 28.9 ± 2.2 (≈ 74.7 µM) | – | – | – | – | – | – | – | – | –
CCNc1nc(Nc2ccc(F)c(Cl)c2)c2ccccc2n1 [Compound 7b, N ^4-(3-Chloro-4-fluorophenyl)-N^2-ethylquinazoline-2,4-diamine] | 15.5 ± 1.3 (≈ 48.9 µM) | 9.45 ± 0.9 (≈ 29.8 µM) | 11.7 ± 0.8 (≈ 36.9 µM) | 113.7 | 79.3 | 218.5 | 163.6 ± 1.12 (≈ 516 µM) | 13.78 | 10.40 | threefold increase | 3.2 | 17.04
Fc1ccc(Nc2nc(Cl)nc3ccc(Cl)cc23)cc1Cl [Compound 11b, 2,6-Dichloro-N-(3-chloro-4-fluorophenyl)quinazolin-4-amine] | 51.2 ± 3.5 (≈ 149 µM) | 45.9 ± 3 (≈ 134 µM) | 38.7 ± 2.8 (≈ 113 µM) | – | – | – | – | – | – | – | – | –
NC(=O)NNc1nc(Cl)nc2ccc(Cl)cc12 [Compound 15b, 2-(2,6-Dichloroquinazolin-4-yl)hydrazine-1-carboxamide] | 13.8 ± 1.2 (≈ 50.7 µM) | 9.87 ± 0.9 (≈ 36.3 µM) | 16.2 ± 1.4 (≈ 59.5 µM) | – | – | – | – | – | – | – | – | –
CNc1nc(Nc2ccc(F)c(Cl)c2)c2ccccc2n1 [Compound 7a, N ^4-(3-Chloro-4-fluorophenyl)-N^2-methylquinazoline-2,4-diamine] | 47.2 ± 2.8 (≈ 156 µM) | 28.1 ± 2.1 (≈ 92.9 µM) | 40.5 ± 2.8 (≈ 134 µM) | – | – | – | – | – | – | – | – | –
Fc1ccc(Nc2nc(Cl)nc3ccccc23)cc1Cl [Compound 6, 2-Chloro-N-(3-chloro-4-fluorophenyl)quinazolin-4-amine] | 85 ± 4.7 (≈ 276 µM) | 81.5 ± 4.2 (≈ 265 µM) | 74.8 ± 4.1 (≈ 243 µM) | – | – | – | – | – | – | – | – | –
O=C1CCC(N2C(=O)c3ccccc3C2=O)C(=O)N1 (stereo not shown) [Thalidomide, thalidomide, reference compound] | 16.9 ± 0.7 (≈ 65.3 µM) | 14.6 ± 0.57 (≈ 56.5 µM) | 11.3 ± 0.54 (≈ 43.6 µM) | 110.5 | 53.1 | 153.2 | – | – | – | 8 folds | 8.3 | –
Cc1ccc(S(=O)(=O)NNc2nnc(Cl)c3ccccc23)cc1 [Compound 24a, N′-(4-Chlorophthalazin-1-yl)-4-methylbenzenesulfonohydrazide] | 8.63 ± 0.6 (≈ 24.7 µM) | 6.07 ± 0.7 (≈ 17.4 µM) | 3.87 ± 0.2 (≈ 11.1 µM) | – | – | – | – | – | – | – | – | –
Fc1ccc(Nc2nc(Cl)nc3cccc(Cl)c23)cc1Cl [Compound 11a, 2,5-Dichloro-N-(3-chloro-4-fluorophenyl)quinazolin-4-amine] | 91.3 ± 4.9 (≈ 266 µM) | 86.1 ± 4.4 (≈ 251 µM) | 77.2 ± 4.2 (≈ 225 µM) | – | – | – | – | – | – | – | – | –
